Measurements reported in patent publication US20260344668A1, “PHENYLPYRAZOLE COMPOUND, AND PLANT DISEASE CONTROL METHOD” (priority 2022, published 2026).

Key:
Phakopsora pachyrhizi [1] = assay: Test Example 15 Control Test Against Soybean Rust Fungus (spore germination, 96 well titer plate); format: cell-based; conditions: treatment concentration 1 ppm, 23° C., several hours
Protocol: (§1) The term of “non-treated well” in Test Example 4, Test Example 5, and Test Example 6 represents a well wherein a test was carried out under the same conditions as those described in each Test Example except for dispensing DMSO instead of a diluted solution with DMSO comprising the Present compound. Also, the term of “non-treated” in Test Examples 15 to 17 represents a test which was carried out under the same conditions as those described in each Test Example except for dispensing DMSO instead of a diluted solution with DMSO comprising the Present compound. Also, the term of “non-treated leaf disk” in Test Example 7 represents a leaf disk wherein a test was carried out under the same conditions as those described in the Test Example except for dispensing DMSO instead of a diluted solution with DMSO comprising the Present compound. Also, the term of “non-treated” in Test Example 10 and Test Example 11 means that a diluted solution with water of a formulation comprising the Present compound was not sprayed.
The Present compound was diluted with DMSO to obtain a diluted solution containing 150 ppm of the compound, and 1 μL of the diluted solution was dispensed into a titer plate (96 well), and thereto was then dispensed 149 μL of an aqueous suspension (1.0×10^4/mL) of spores of Phakopsora pachyrhizi to which spores of Phakopsora pachyrhizi were suspended in advance. This plate was cultured at 23° C. for several hours, and then germinated spores of Phakopsora pachyrhizi were counted. As a result, when the treatment concentration was 1 ppm, the number of germinated spores in each well comprising any one of the Present compound 1, 11, 17, 18, 20, 23, 30, 33, 34, 35, 36, 37, 38, 39, 40, 41, 42, 43, 44, 46, 47, 48, 49, 50, 51, 52, 53, 54, 55, 56, 57, 58, 62, 63, 64, 65, 66, 67, 68, 69, 70, 71, 72, 73, 74, 75, 76, 77, 78, 79, 80, 81, 82, 83, 84, 85, 86, 87, 88, 89, 90, 91, 92, 93, 94, 95, 96, 97, 98, 99, 100, 101, or 102 as the test compound was 50% or less relative to the number of germinated spores in the non-treated well.

Phakopsora pachyrhizi [2] = assay: Test Example 11 Control Test Against Soybean Rust (pot test, spraying before inoculation); format: in vivo; conditions: 200 ppm foliage spray, soybeans (Kurosengoku), inoculated after 2 to 5 days
Protocol: as §1
A plastic pot was filled with soil, soybeans (cultivar: Kurosengoku) were seeded thereto, and cultured in a greenhouse for 10 to 14 days. The Present compound 9, 10, 11, 13, 14, 15, 17, 18, 20, 21, 22, 23, 26, 27, 33, 34, 35, 36, 37, 38, 39, 40, 41, 42, 43, 44, 46, 47, 53, 54, 55, 56, 57, 58, 66, 67, 68, 69, 70, 71, 73, 74, 75, 76, 77, 78, 79, 80, 81, 82, 83, 84, 85, 86, 87, 88, 89, 90, 91, 92, 93, 94, 95, 96, 97, 98, 99, 100, 101, or 102 formulated according to the method described in the Formulation Example 1 was mixed with water in such a way that the concentration thereof was 200 ppm, and the resulting mixture was sprayed to foliage of the above soybeans so as to adequately adhere onto the surfaces of leaves of the above soybeans. After spraying the mixture, the soybeans were air-dried. After 2 to 5 days, an aqueous suspension of spores of Phakopsora pachyrhizi was inoculated by spraying to the soybeans. After the inoculation, the soybeans were placed in a greenhouse at 23° C. in daytime and at 20° C. in nighttime under a humid condition for 1 to 2 day(s), then cultured in a greenhouse for 12 days, and then a lesion area was investigated. As a result, the lesion area in the soybeans treated with each of the above Present compound was 30% or less relative to the lesion area in the non-treated soybeans.

[3] = test system: soybean rust fungus (Phakopsora pachyrhizi) having an amino acid substitution of F129L in a mitochondrial cytochrome b protein; assay: Test Example 7 Control Test Against Soybean Rust (leaf disk); format: in vivo; conditions: 200 ppm, 10 μL per soybean leaf disk (cultivar: Kurosengoku), inoculated after 1 day
Protocol: as §1
A true leaf of a soybean (cultivar: Kurosengoku) was cut into a diameter of 1 cm to prepare each leaf disk. To each well of a 24 well microplate was dispensed 1 mL of an agar medium (agar concentration 1.2%), and then one of said leaf disk was placed on the agar medium in each well. To a mixture of Sorpol (registered trademark) 1200KX (0.5 μL), DMSO (4.5 μL), and xylene (5 μL) was added a DMSO solution (20 μL) comprising a test compound (10000 ppm), and the resulting mixture was mixed. The resulting mixture was diluted with ion exchange water to prepare a mixture comprising a prescribed concentration of the test compound.
The resulting mixture was sprayed into each leaf disk at a ratio of 10 μL per leaf disk. After 1 day, an aqueous suspension of spores of soybean rust fungus (Phakopsora pachyrhizi) having an amino acid substitution of F129L in a mitochondrial cytochrome b protein (1.0×10^5/mL) was inoculated by spraying on each leaf disk. After the inoculation, the microplate was placed into an artificial climate chamber (Lighting: 6 hours, Lights-out: 18 hours, Temperature: 23° C., Humidity: 60%). After 1 day, the leaf disks were air-dried until water droplets on the surfaces of the leaf disks disappeared, and the microplate was placed into the artificial climate chamber again for 12 days. Then, lesion area of soybean rust was investigated. As a result, when the prescribed concentration was 200 ppm, each lesion area of leaf disk treated with any one of the Present compound 9, 10, 11, 13, 14, 15, 16, 17, 18, 20, 32, 33, 34, 35, 36, 37, 38, 39, 40, 42, 43, 44, 47, 48, 49, 50, 51, 52, 53, 55, 56, 57, 58, 62, 63, 64, 65, 66, 67, 68, 69, 70, 71, 73, 74, 75, 76, 77, 78, 79, 80, 81, 82, 83, 84, 85, 86, 87, 88, 89, 90, 91, 92, 93, 94, 95, 96, 97, 98, 99, 100, 101, or 102 as the test compound was 30% or less relative to the lesion area of non-treated leaf disk.

| Structure (SMILES) | number of germinated spores relative to the non-treated well (Phakopsora pachyrhizi [1]) [%] | lesion area relative to the lesion area in the non-treated soybeans (Phakopsora pachyrhizi [2]) [%] | lesion area relative to the lesion area of non-treated leaf disk [3] [%] |
| --- | --- | --- | --- |
| Cc1ccc(S(=O)(=O)n2ccc(-c3ccc(Cl)cc3)n2)cc1 [compound 1] | ≤ 50 | – | – |
| O=S(=O)(c1ccccc1Cl)n1ccc(-c2cc(F)c(Br)c(F)c2)n1 [compound 11] | ≤ 50 | ≤ 30 | ≤ 30 |
| O=S(=O)(c1ccccc1F)n1ccc(-c2cc(F)c(Br)c(F)c2)n1 [compound 13] | – | ≤ 30 | ≤ 30 |
| O=S(=O)(c1ccc(F)cc1)n1ccc(-c2cc(F)c(Br)c(F)c2)n1 [compound 14] | – | ≤ 30 | ≤ 30 |
| O=S(=O)(c1c(Cl)cccc1Cl)n1ccc(-c2cc(F)c(Br)c(F)c2)n1 [compound 15] | – | ≤ 30 | ≤ 30 |
| O=S(=O)(c1cc(Cl)cc(Cl)c1)n1ccc(-c2cc(F)c(Br)c(F)c2)n1 [compound 16] | – | – | ≤ 30 |
| O=S(=O)(c1cccc(Cl)c1)n1ccc(-c2cc(F)c(Br)c(F)c2)n1 [compound 18] | ≤ 50 | ≤ 30 | ≤ 30 |
| Cc1cccc(S(=O)(=O)n2ccc(-c3cc(F)c(Br)c(F)c3)n2)c1 [compound 20] | ≤ 50 | ≤ 30 | ≤ 30 |
| Cc1ccc(S(=O)(=O)n2ccc(-c3cc(F)c(Br)c(F)c3)n2)cc1 [compound 21] | – | ≤ 30 | – |
| COc1ccc(S(=O)(=O)n2ccc(-c3cc(F)c(Br)c(F)c3)n2)cc1 [compound 22] | – | ≤ 30 | – |
| COc1cccc(S(=O)(=O)n2ccc(-c3cc(F)c(Br)c(F)c3)n2)c1 [compound 23] | ≤ 50 | ≤ 30 | – |
| N#Cc1cccc(S(=O)(=O)n2ccc(-c3cc(F)c(Br)c(F)c3)n2)c1 [compound 26] | – | ≤ 30 | – |
| N#Cc1ccc(S(=O)(=O)n2ccc(-c3cc(F)c(Br)c(F)c3)n2)cc1 [compound 27] | – | ≤ 30 | – |
| O=S(=O)(c1cc2ccccc2o1)n1ccc(-c2cc(F)c(Br)c(F)c2)n1 [compound 30] | ≤ 50 | – | – |
| Cn1ccc(S(=O)(=O)n2ccc(-c3cc(F)c(Br)c(F)c3)n2)n1 [compound 34] | ≤ 50 | ≤ 30 | ≤ 30 |
| Cn1cc(S(=O)(=O)n2ccc(-c3cc(F)c(Br)c(F)c3)n2)cn1 [compound 35] | ≤ 50 | ≤ 30 | ≤ 30 |
| Cn1ccnc1S(=O)(=O)n1ccc(-c2cc(F)c(Br)c(F)c2)n1 [compound 38] | ≤ 50 | ≤ 30 | ≤ 30 |
| CN(C)c1ccc(-c2ccn(S(=O)(=O)c3cccs3)n2)cc1 [compound 46] | ≤ 50 | ≤ 30 | – |
| O=S(=O)(c1ccc(Cl)s1)n1ccc(-c2cc(F)c(Br)c(F)c2)n1 [compound 47] | ≤ 50 | ≤ 30 | ≤ 30 |
| O=S(=O)(c1cccnc1Cl)n1ccc(-c2cc(F)c(Br)c(F)c2)n1 [compound 54] | ≤ 50 | ≤ 30 | – |
| O=S(=O)(c1cccnc1)n1ccc(-c2cccc(F)c2)n1 [compound 56] | ≤ 50 | ≤ 30 | ≤ 30 |
| O=S(=O)(c1cccnc1)n1ccc(-c2ccc(F)cc2)n1 [compound 57] | ≤ 50 | ≤ 30 | ≤ 30 |
| O=S(=O)(c1cccs1)n1ccc(-c2ccc3c(c2)OC(F)(F)O3)n1 [compound 63] | ≤ 50 | – | ≤ 30 |
| O=S(=O)(c1cccs1)n1ccc(-c2ccc3nonc3c2)n1 [compound 64] | ≤ 50 | – | ≤ 30 |
| O=S(=O)(c1cccs1)n1ccc(-c2ccc3ncsc3c2)n1 [compound 65] | ≤ 50 | – | ≤ 30 |
| Cc1ccc(S(=O)(=O)n2ccc(-c3cc(F)c(Br)c(F)c3)n2)o1 [compound 72] | ≤ 50 | – | – |
